From the supplement of paper PMC11451515

System: SEM cells
Experiment: cell viability relative to DMSO control; higher = less cytotoxic
Conditions: 48 h
Procedure, shortened: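 Viability is expressed as a percentage of DMSO wells within each plate, and cell-free wells serve as background. Seeding densities in the 1536-well plates (5 μl) were 500 cells/well for NOMO1 or SEM leukemia cells and 1000 cells/well for P12-Ichikawa. Each line was adapted for at least four passages in each medium. Library compounds in DMSO were pin-dosed at 47 μM to 0.79 nM (11 points, threefold), and CellTiter-Glo One luminescence was read after 48 h at 37°C.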

[1] = HPLM + 10% dialyzed FBS, 0.000781 µM
[2] = HPLM + 10% dialyzed FBS, 0.00234 µM
[3] = HPLM + 10% dialyzed FBS, 0.00702 µM
[4] = HPLM + 10% dialyzed FBS, 0.0211 µM
[5] = HPLM + 10% dialyzed FBS, 0.0632 µM
[6] = HPLM + 10% dialyzed FBS, 0.19 µM
[7] = HPLM + 10% dialyzed FBS, 0.569 µM
[8] = HPLM + 10% dialyzed FBS, 1.71 µM
[9] = HPLM + 10% dialyzed FBS, 5.12 µM
[10] = HPLM + 10% dialyzed FBS, 15.4 µM
[11] = HPLM + 10% dialyzed FBS, 46.1 µM
[12] = RPMI 5 mM glucose + 10% FBS, 0.000781 µM
[13] = RPMI 5 mM glucose + 10% FBS, 0.00234 µM
[14] = RPMI 5 mM glucose + 10% FBS, 0.00702 µM
[15] = RPMI 5 mM glucose + 10% FBS, 0.0211 µM
[16] = RPMI 5 mM glucose + 10% FBS, 0.0632 µM
[17] = RPMI 5 mM glucose + 10% FBS, 0.19 µM
[18] = RPMI 5 mM glucose + 10% FBS, 0.569 µM
[19] = RPMI 5 mM glucose + 10% FBS, 1.71 µM
[20] = RPMI 5 mM glucose + 10% FBS, 5.12 µM
[21] = RPMI 5 mM glucose + 10% FBS, 15.4 µM
[22] = RPMI 5 mM glucose + 10% FBS, 46.1 µM
[23] = RPMI 5 mM glucose + 10% dialyzed FBS, 0.000781 µM
[24] = RPMI 5 mM glucose + 10% dialyzed FBS, 0.00234 µM
[25] = RPMI 5 mM glucose + 10% dialyzed FBS, 0.00702 µM
[26] = RPMI 5 mM glucose + 10% dialyzed FBS, 0.0211 µM
[27] = RPMI 5 mM glucose + 10% dialyzed FBS, 0.0632 µM
[28] = RPMI 5 mM glucose + 10% dialyzed FBS, 0.19 µM
[29] = RPMI 5 mM glucose + 10% dialyzed FBS, 0.569 µM
[30] = RPMI 5 mM glucose + 10% dialyzed FBS, 1.71 µM
[31] = RPMI 5 mM glucose + 10% dialyzed FBS, 5.12 µM
[32] = RPMI 5 mM glucose + 10% dialyzed FBS, 15.4 µM
[33] = RPMI 5 mM glucose + 10% dialyzed FBS, 46.1 µM

SMILES | cell viability [1] [%] | cell viability [2] [%] | cell viability [3] [%] | cell viability [4] [%] | cell viability [5] [%] | cell viability [6] [%] | cell viability [7] [%] | cell viability [8] [%] | cell viability [9] [%] | cell viability [10] [%] | cell viability [11] [%] | cell viability [12] [%] | cell viability [13] [%] | cell viability [14] [%] | cell viability [15] [%] | cell viability [16] [%] | cell viability [17] [%] | cell viability [18] [%] | cell viability [19] [%] | cell viability [20] [%] | cell viability [21] [%] | cell viability [22] [%] | cell viability [23] [%] | cell viability [24] [%] | cell viability [25] [%] | cell viability [26] [%] | cell viability [27] [%] | cell viability [28] [%] | cell viability [29] [%] | cell viability [30] [%] | cell viability [31] [%] | cell viability [32] [%] | cell viability [33] [%]
CN(C)c1nc(N(C)C)nc(N(C)C)n1 | 92.3 | 97.3 | 110 | 95.1 | 103 | 104 | 106 | 92.5 | 97.6 | 92.2 | 84.9 | 107 | 111 | 102 | 105 | 107 | 101 | 102 | 100 | 90.1 | 104 | 93.4 | 102 | 115 | 102 | 104 | 108 | 110 | 109 | 94.3 | 100 | 98.6 | 93.1
CC1=C(C)C2=C(S1)[N]3C(=NN=C3[C@H](CC(=O)OC(C)(C)C)/N=C2/C4=CC=C(Cl)C=C4)C | 98.5 | 115 | 107 | 105 | 104 | 43.2 | 11.3 | 17.7 | 6.74 | 4.33 | 1.71 | 100 | 108 | 106 | 102 | 103 | 67.7 | 13.7 | 18.7 | 7.27 | 4.94 | 1.39 | 108 | 103 | 102 | 78.7 | 94.7 | 53.9 | 17.5 | 15.8 | 5.05 | 3.64 | 1.14
C[C@@H]1CN(CC(=O)N2CC(C)(C)c3ncc(Cc4ccc(F)cc4)cc32)[C@@H](CN2CCOC[C@H]2C)CN1 | 83.8 | 105 | 48 | 115 | 105 | 95.2 | 113 | 85 | 105 | 104 | 73 | 76.3 | 96.3 | 30.4 | 104 | 92.5 | 88.9 | 97.8 | 89.2 | 110 | 80.4 | 54.9 | 86.9 | 116 | 40.8 | 117 | 103 | 114 | 111 | 104 | 111 | 94.5 | 75.6
Cc1nc2c([nH]1)-c1ccccc1N(C(=O)c1ccc(NC(=O)c3ccccc3-c3ccccc3)cc1)CC2 | 91.3 | 115 | 90.8 | 123 | 114 | 122 | 123 | 115 | 113 | 128 | 124 | 123 | 120 | 100 | 138 | 129 | 129 | 141 | 163 | 128 | 149 | 118 | 111 | 143 | 108 | 131 | 140 | 160 | 130 | 121 | 127 | 166 | 124
COc1ccc([C@@H]2CNC(=O)C2)cc1OC1CCCC1 | 83.1 | 90.7 | 93.9 | 102 | 103 | 103 | 96.2 | 114 | 114 | 111 | 93.2 | 76.9 | 101 | 92.3 | 93.7 | 100 | 98.6 | 92 | 95.5 | 103 | 95.6 | 98 | 97.1 | 94.3 | 97.9 | 70.6 | 97.4 | 103 | 104 | 106 | 99.6 | 97.6 | 90.9
Cn1cc(-c2ccc3ncc(Cc4ccc5ncccc5c4)n3n2)cn1 | 93.2 | 108 | 103 | 98.8 | 101 | 112 | 94.3 | 99.5 | 89.9 | 72.8 | 71 | 113 | 117 | 122 | 109 | 131 | 122 | 115 | 107 | 123 | 74 | 79.4 | 96.2 | 103 | 102 | 101 | 112 | 109 | 111 | 106 | 98.8 | 71.2 | 67.3
CCOP(=O)(OCC)C(C)NC(=O)N(CCCl)N=O (stereo not given) | 101 | 109 | 125 | 114 | 126 | 128 | 129 | 122 | 119 | 127 | 94.9 | 90.7 | 98.1 | 98.7 | 104 | 101 | 111 | 78.4 | 95.5 | 87.1 | 84.6 | 74.4 | 108 | 97 | 116 | 122 | 112 | 127 | 127 | 137 | 107 | 103 | 81.2
Nc1ccc([S+](=O)([O-])Nc2ccccn2)cc1 | 77.7 | 91.7 | 91.3 | 93.7 | 82.7 | 91 | 93.6 | 98.8 | 88.5 | 97 | 96.9 | 100 | 104 | 115 | 118 | 112 | 108 | 122 | 119 | 124 | 109 | 111 | 98.6 | 109 | 100 | 101 | 113 | 101 | 99 | 108 | 121 | 103 | 115
COC(=O)N[C@H](C(=O)N[C@@H](Cc1ccccc1)[C@@H](O)CN(Cc1ccc(-c2ccccn2)cc1)NC(=O)[C@@H](NC(=O)OC)C(C)(C)C)C(C)(C)C | – | – | – | – | – | – | – | – | – | – | – | 103 | 123 | 152 | 111 | 136 | 110 | 122 | 110 | 128 | 116 | 96.7 | 101 | 118 | 136 | 123 | 132 | 131 | 110 | 113 | 122 | 123 | 79.9
O=C1c2cccc(O)c2C(=O)c2c(O)cc(CO)cc21 | 101 | 97.7 | 107 | 119 | 111 | 34 | 110 | 105 | 102 | 97.4 | 109 | 105 | 103 | 99.9 | 110 | 93 | 45 | 101 | 84.2 | 92.3 | 103 | 103 | 102 | 97.2 | 100 | 91.7 | 91.2 | 45.1 | 85.9 | 86.4 | 94.2 | 92.6 | 85.3
Cc1ccccc1C(C(=O)NC1CCCCC1)N(C(=O)CNc1ccc(C#N)cc1)c1cccc(F)c1 (stereo not given) | 88.7 | 116 | 119 | 121 | 124 | 118 | 118 | 105 | 118 | 103 | 111 | 113 | 118 | 105 | 106 | 105 | 119 | 103 | 96.9 | 95 | 93.4 | 106 | 85 | 107 | 119 | 95.4 | 97 | 103 | 91.6 | 108 | 97.6 | 101 | 89.5
CN1C(=O)COc2c(C(=O)NC3CN4CCC3CC4)cc(Cl)cc21 (stereo not given) | 114 | 112 | 119 | 100 | 116 | 101 | 118 | 101 | 112 | 105 | 101 | 91.7 | 93.7 | 94 | 96.6 | 104 | 95.7 | 109 | 90.6 | 88.5 | 95.5 | 84.9 | 116 | 120 | 125 | 122 | 118 | 126 | 107 | 109 | 97.6 | 131 | 124
Cc1cc(SCc2sc(-c3ccc(C(F)(F)F)c(F)c3)nc2C)ccc1OCC(=O)O | 104 | 107 | 105 | 40.9 | 103 | 109 | 108 | 111 | 105 | 98.9 | 96.1 | 102 | 74.9 | 96.7 | 43.2 | 100 | 107 | 99.4 | 101 | 104 | 93.8 | 103 | 93.4 | 93.3 | 106 | 48.4 | 93.6 | 104 | 100 | 100 | 91.6 | 101 | 96.5
CN1[C@@H]2CC(O)C[C@H]1[C@@H]1O[C@@H]12 (stereo not given in full) | – | – | – | – | – | – | – | – | – | – | – | 124 | 123 | 114 | 19.5 | 134 | 115 | 109 | 130 | 115 | 109 | 7.57 | 101 | 126 | 116 | 21.8 | 103 | 111 | 103 | 106 | 94.3 | 81.4 | 5.54
CCC(CC)[C@H](NC(C)=O)[C@@H]1[C@H](O)[C@@H](C(=O)O)C[C@H]1NC(=N)N | 62 | 68 | 77.2 | 87.2 | 76.1 | 32.7 | 57.9 | 79.1 | 78.3 | 66.1 | 87.8 | 89.2 | 84.2 | 84.6 | 80.4 | 103 | 17.8 | 94.4 | 102 | 87.2 | 77.7 | 88.3 | 69.9 | 71.9 | 80.8 | 80.9 | 81.8 | 56.7 | 50.9 | 95.9 | 114 | 71.9 | 68.6
CC1OC(OC/2=C(/OC3=C(C(=CC(=C3)O)O)C2=O)C4=CC=C(O)C=C4)C(O)C(OC(C)=O)C1OC(C)=O (stereo not given) | 117 | 120 | 116 | 113 | 105 | 112 | 106 | 113 | 106 | 102 | 77.7 | – | – | – | – | – | – | – | – | – | – | – | 100 | 101 | 114 | 102 | 110 | 103 | 98.1 | 95.5 | 108 | 90.5 | 77.1
